Target: human BACE1 (Homo sapiens, UniProt P56817)
Assay: BACE1 fluorescent kinetic assay (cleavage of peptide substrate WABC-6)
Type: biochemical
Conditions: Activity Table, Examples 1-108; 10 nM enzyme, 25 μM substrate WABC-6, pH 4.5, room temperature
Method: Evaluation of BACE1 Binding Affinity of Test Compounds
Fluorescent Kinetic Assays
Dilution and mixing steps: total reaction volume: 100 μL
100 μM substrate dilution in 1×PBS was prepared, and
Fluorescence Readings: Readings at λex 320 nm and λem 420 nm are taken every 40 sec for 30 min at room temperature and the linear slope for substrate cleavage rate (vi) determined.

Chain of human BACE1 (P56817 46-501): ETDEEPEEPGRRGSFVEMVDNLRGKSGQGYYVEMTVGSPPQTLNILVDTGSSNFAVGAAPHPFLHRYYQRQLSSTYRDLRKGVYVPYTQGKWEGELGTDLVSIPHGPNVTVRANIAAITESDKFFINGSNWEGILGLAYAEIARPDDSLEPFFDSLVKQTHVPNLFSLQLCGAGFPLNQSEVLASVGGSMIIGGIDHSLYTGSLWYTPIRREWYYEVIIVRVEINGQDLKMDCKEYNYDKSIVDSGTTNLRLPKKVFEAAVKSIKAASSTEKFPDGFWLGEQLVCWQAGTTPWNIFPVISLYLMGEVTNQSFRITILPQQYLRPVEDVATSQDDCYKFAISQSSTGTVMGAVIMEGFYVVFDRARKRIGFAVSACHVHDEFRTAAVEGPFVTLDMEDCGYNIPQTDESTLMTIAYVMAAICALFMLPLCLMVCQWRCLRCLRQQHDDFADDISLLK

IC50	Compound
< 100 nM	C=CCCC(F)c1cccc(C2(c3ccc(OC(F)F)cc3)N=C(N)N(C)C2=O)c1 (stereo not drawn) [Example 12, 2-Amino-5-(4-difluoromethoxy-phenyl)-5-[3-(1-fluoro-pent-4-enyl)-phenyl]-3-methyl-3,5-dihydro-imidazol-4-one]
110 to 1000 nM	C=CCCC(F)c1cc(C2(c3ccc(OC(F)F)cc3)N=C(N)N(C)C2=O)ccc1F (stereo not drawn) [Example 13, 2-Amino-5-(4-difluoromethoxy-phenyl)-5-[4-fluoro-3-(1-fluoro-pent-4-enyl)-phenyl]-3-methyl-3,5-dihydro-imidazol-4-one]
< 100 nM	CN1C(=O)C(c2ccc(OC(F)F)cc2)(c2ccc(F)c(CCCC#N)c2)N=C1N (stereo not drawn) [Example 14, 4-{5-[2-Amino-4-(4-difluoromethoxy-phenyl)-1-methyl-5-oxo-4,5-dihydro-1H-imidazol-4-yl]-2-fluoro-phenyl}-butyronitrile]
110 to 1000 nM	Cc1cc(C2(c3ccc(OC(F)F)cc3)N=C(N)N(C)C2=O)ccc1F (stereo not drawn) [Example 15, 2-Amino-5-(4-difluoromethoxy-phenyl)-5-(4-fluoro-3-methyl-phenyl)-3-methyl-3,5-dihydro-imidazol-4-one]
> 1000 nM	COc1ccc(C2(c3ccc(OC(F)F)cc3)N=C(N)N(C)C2=O)cc1C#N (stereo not drawn) [Example 16, 5-[2-Amino-4-(4-difluoromethoxy-phenyl)-1-methyl-5-oxo-4,5-dihydro-1H-imidazol-4-yl]-2-methoxy-benzonitrile]
< 100 nM	CN1C(=O)[C@@](c2ccc(OC(F)F)cc2)(c2ccc(F)c(OCCC(F)F)c2)N=C1N [Example 94, (5R)-2-Amino-5-[4-(difluoromethoxy)phenyl]-5-[3-(3,3-difluoropropoxy)-4-fluorophenyl]-3-methyl-3,5-dihydro-4H-imidazol-4-one]
110 to 1000 nM	Cc1cccc(C2(c3ccc(OC(F)F)cc3)N=C(N)N(C)C2=O)c1 (stereo not drawn) [Example 95, 2-Amino-5-[4-(difluoromethoxy)phenyl]-3-methyl-5-(3-methylphenyl)-3,5-dihydro-4H-imidazol-4-one]
< 100 nM	CCOCCC#Cc1cccc(C2(c3ccc(OC(F)F)cc3)N=C(N)N(C)C2=O)c1 (stereo not drawn) [Example 96, 2-Amino-5-[4-(difluoromethoxy)phenyl]-5-[3-(4-ethoxybut-1-yn-1-yl)phenyl]-3-methyl-3,5-dihydro-4H-imidazol-4-one]
< 100 nM	CN1C(=O)C(c2ccc(OC(F)F)cc2)(c2ccc(F)c(C#CCF)c2)N=C1N (stereo not drawn) [Example 99, 2-amino-5-[4-(difluoromethoxy)phenyl]-5-[4-fluoro-3-(3-fluoroprop-1-yn-1-yl)phenyl]-3-methyl-3,5-dihydro-4H-imidazol-4-one]
< 100 nM	CN1C(=O)C(c2ccc(OC(F)F)cc2)(c2ccc(F)c(C#CCCF)c2)N=C1N (stereo not drawn) [Example 102, 2-amino-5-[4-(difluoromethoxy)phenyl]-5-[4-fluoro-3-(4-fluorobut-1-yn-1-yl)phenyl]-3-methyl-3,5-dihydro-4H-imidazol-4-one]
> 1000 nM	CN1C(=O)[C@](c2ccc(OC(F)F)cc2)(c2ccc(F)c(C#CCCF)c2)N=C1N [Example 103, (5S)-2-amino-5-[4-(difluoromethoxy)phenyl]-5-[4-fluoro-3-(4-fluorobut-1-yn-1-yl)phenyl]-3-methyl-3,5-dihydro-4H-imidazol-4-one]
< 100 nM	CN1C(=O)[C@@](c2ccc(OC(F)F)cc2)(c2ccc(F)c(C#CCCF)c2)N=C1N [Example 104, (5R)-2-amino-5-[4-(difluoromethoxy)phenyl]-5-[4-fluoro-3-(4-fluorobut-1-yn-1-yl)phenyl]-3-methyl-3,5-dihydro-4H-imidazol-4-one]
< 100 nM	CN1C(=O)[C@@](c2ccc(OC(F)F)cc2)(c2ccc(F)c(C#CCF)c2)N=C1N [Example 107, (5R)-2-amino-5-[4-(difluoromethoxy)phenyl]-5-[4-fluoro-3-(3-fluoroprop-1-yn-1-yl)phenyl]-3-methyl-3,5-dihydro-4H-imidazol-4-one]
> 1000 nM	CN1C(=O)[C@](c2ccc(OC(F)F)cc2)(c2ccc(F)c(C#CCF)c2)N=C1N [Example 108, (5S)-2-amino-5-[4-(difluoromethoxy)phenyl]-5-[4-fluoro-3-(3-fluoroprop-1-yn-1-yl)phenyl]-3-methyl-3,5-dihydro-4H-imidazol-4-one]

Compound	IC50
methyl[3-(3-{2-amino-4-[4-(difluoromethoxy)phenyl]-1-methyl-5-oxo-4,5-dihydro-1H-imidazol-4-yl}phenyl)-1-methoxycyclobutyl]acetate-methyl[3-(3-{2-amino-4-[4-(difluoromethoxy)phenyl]-1-methyl-5-oxo-4,5-dihydro-1H-imidazol-4-yl}phenyl)cyclobutylidene]acetate (3:1) [Example 55]	110 to 1000 nM

Same assay, conditions: Examples 109-141; 10 nM enzyme, 25 μM substrate WABC-6, pH 4.5, room temperature

IC50	Compound
> 1000 nM	COCCC(C)c1cccc(C2(c3ccc(OC(F)F)cc3)N=C(N)N(C)C2=O)c1 (stereo not drawn) [Example 111, 2-amino-5-[4-(difluoromethoxy)phenyl]-5-[3-(3-methoxy-1-methylpropyl)phenyl]-3-methyl-3,5-dihydro-4H-imidazol-4-one]
> 1000 nM	CCOCCC(C)c1cccc(C2(c3ccc(OC(F)F)cc3)N=C(N)N(C)C2=O)c1 (stereo not drawn) [Example 112, 2-amino-5-[4-(difluoromethoxy)phenyl]-5-[3-(3-ethoxy-1-methylpropyl)phenyl]-3-methyl-3,5-dihydro-4H-imidazol-4-one]
> 1000 nM	Cc1cc2cc(C3(c4ccc(OC(F)F)cc4)N=C(N)N(C)C3=O)ccc2o1 (stereo not drawn) [Example 113, 2-amino-5-[4-(difluoromethoxy)phenyl]-3-methyl-5-(2-methyl-1-benzofuran-5-yl)-3,5-dihydro-4H-imidazol-4-one]
> 1000 nM	CN1C(=O)C(c2ccc(OC(F)F)cc2)(c2cccc(N)c2)N=C1N (stereo not drawn) [Example 115, 2-amino-5-(3-aminophenyl)-5-[4-(difluoromethoxy)phenyl]-3-methyl-3,5-dihydro-4H-imidazol-4-one]
110 to 1000 nM	CC(=O)Nc1cccc(C2(c3ccc(OC(F)F)cc3)N=C(N)N(C)C2=O)c1 (stereo not drawn) [Example 116, N-(3-{2-amino-4-[4-(difluoromethoxy)phenyl]-1-methyl-5-oxo-4,5-dihydro-1H-imidazol-4-yl}phenyl)acetamide]
< 100 nM	CN1C(=O)C(c2ccc(OC(F)F)cc2)(c2cccc(NC(=O)c3ccc4c(c3)CCO4)c2)N=C1N (stereo not drawn) [Example 117, N-(3-{2-amino-4-[4-(difluoromethoxy)phenyl]-1-methyl-5-oxo-4,5-dihydro-1H-imidazol-4-yl}phenyl)-2,3-dihydro-1-benzofuran-5-carboxamide]
< 100 nM	C=CCCCCc1cccc(C2(c3ccc(OC(F)F)cc3)N=C(N)N(C)C2=O)c1 (stereo not drawn) [Example 121, 2-amino-5-[4-(difluoromethoxy)phenyl]-5-(3-hex-5-en-I-ylphenyl)-3-methyl-3,5dihydro-4H-imidazol-4-one]
< 100 nM	C=CCCCCc1cccc(C2(c3ccc(OC(F)F)cc3)N=C(N)N(C)C2=O)c1 (stereo not drawn) [Example 125, 2-amino-5-[4-(difluoromethoxy)phenyl]-5-(3-hex-5-en-I-ylphenyl)-3-methyl-3,5-dihydro-4H-imidazol-4-one]
110 to 1000 nM	CCCCCCc1cccc(C2(c3ccc(OC(F)F)cc3)N=C(N)N(C)C2=O)c1 (stereo not drawn) [Example 126, 2-amino-5-[4-(difluoromethoxy)phenyl]-5-(3-hexylphenyl)-3-methyl-3,5-dihydro-4Himidazol-4-one]
< 100 nM	COCCCC/C=C/c1cccc([C@@]2(c3ccc(OC(F)F)cc3)N=C(N)N(C)C2=O)c1 [Example 129, (R,E)-2-amino-4-(4-(difluoromethoxy)phenyl)-4-(3-(6-methoxyhex-1-enyl)phenyl)-1-methyl-1H-imidazol-5(4H)-one]
110 to 1000 nM	CC(C)Oc1cc(C2(c3ccc(OC(F)F)cc3)N=C(N)N(C)C2=O)ccc1F (stereo not drawn) [Example 136, 2-amino-5-[4-(difluoromethoxy)phenyl]-5-(4-fluoro-3-isopropoxyphenyl)-3-methyl-3,5-dihydro-4H-imidazol-4-one]
< 100 nM	CC(C)C#Cc1cc(C2(c3ccc(OC(F)F)cc3)N=C(N)N(C)C2=O)ccc1F (stereo not drawn) [Example 138, 2-amino-5-[4-(difluoromethoxy)phenyl]-5-[4-fluoro-3-(3-methylbut-1-yn-1-yl)phenyl]-3-methyl-3,5-dihydro-4H-imidazol-4-one]
> 1000 nM	CN1C(=O)[C@@](c2ccc(OC(F)F)cc2)(c2ccc(F)c(/C=C/CCF)c2)N=C1N [Example 140, (5R)-2-amino-5-[4-(difluoromethoxy)phenyl]-5-{4-fluoro-3-[(1E)-4-fluorobut-1-en1-yl]phenyl}-3-methyl-3,5-dihydro-4H-imidazol-4-one]
< 100 nM	CN1C(=O)[C@](c2ccc(OC(F)F)cc2)(c2ccc(F)c(/C=C/CCF)c2)N=C1N [Example 141, (5S)-2-amino-5-[4-(difluoromethoxy)phenyl]-5-{4-fluoro-3-[(1E)-4-fluorobut-1-en-1-yl]phenyl}-3-methyl-3,5-dihydro-4H-imidazol-4-one]

Further lines, the compound ahead of its results:

Compound	IC50
CCOC/C=C(\C)c1cccc(C2(c3ccc(OC(F)F)cc3)N=C(N)N(C)C2=O)c1 (stereo not drawn) [Example 109, 2-amino-5-[4-(difluoromethoxy)phenyl]-5-{3-[(1E)-3-ethoxy-1-methylprop-1-en-1-yl]phenyl}-3-methyl-3,5-dihydro-4H-imidazol-4-one]	110 to 1000 nM
C=CC[C@H](C)c1cccc(C2(c3ccc(OC(F)F)cc3)N=C(N)N(C)C2=O)c1 (stereo partly drawn) [Example 110, 2-amino-5-[4-(difluoromethoxy)phenyl]-3-methyl-5-{3-[(1S)-1-methylbut-3-en-1-yl]phenyl}-3,5-dihydro-4H-imidazol-4-one]	110 to 1000 nM

Tested on: not given
Assay: not given
Conditions: not given

melting point	Compound
50 to 55 °C	C=CCCC(F)c1cccc(C2(c3ccc(OC(F)F)cc3)N=C(N)N(C)C2=O)c1 (stereo not drawn) [Example 12, 2-Amino-5-(4-difluoromethoxy-phenyl)-5-[3-(1-fluoro-pent-4-enyl)-phenyl]-3-methyl-3,5-dihydro-imidazol-4-one]
50 to 55 °C	C=CCCC(F)c1cc(C2(c3ccc(OC(F)F)cc3)N=C(N)N(C)C2=O)ccc1F (stereo not drawn) [Example 13, 2-Amino-5-(4-difluoromethoxy-phenyl)-5-[4-fluoro-3-(1-fluoro-pent-4-enyl)-phenyl]-3-methyl-3,5-dihydro-imidazol-4-one]
65 to 70 °C	CN1C(=O)C(c2ccc(OC(F)F)cc2)(c2ccc(F)c(CCCC#N)c2)N=C1N (stereo not drawn) [Example 14, 4-{5-[2-Amino-4-(4-difluoromethoxy-phenyl)-1-methyl-5-oxo-4,5-dihydro-1H-imidazol-4-yl]-2-fluoro-phenyl}-butyronitrile]
70 °C	Cc1cc(C2(c3ccc(OC(F)F)cc3)N=C(N)N(C)C2=O)ccc1F (stereo not drawn) [Example 15, 2-Amino-5-(4-difluoromethoxy-phenyl)-5-(4-fluoro-3-methyl-phenyl)-3-methyl-3,5-dihydro-imidazol-4-one]
104 to 105 °C	COc1ccc(C2(c3ccc(OC(F)F)cc3)N=C(N)N(C)C2=O)cc1C#N (stereo not drawn) [Example 16, 5-[2-Amino-4-(4-difluoromethoxy-phenyl)-1-methyl-5-oxo-4,5-dihydro-1H-imidazol-4-yl]-2-methoxy-benzonitrile]
